Experimental findings from patent US20230146675A1, “PYRIMIDO[5,4-d]PYRIMIDINE DERIVATIVES AS ENT INHIBITORS FOR THE TREATMENT OF CANCERS, AND COMBINATION THEREOF WITH ADENOSINE RECEPTOR ANTAGONISTS” (ITEOS BELGIUM SA, priority 2020, published 2023) are described below.

Some results are limits rather than exact numbers.

The target in this test is T1, human ENT1 (Homo sapiens, UniProt Q99808).
T1 sequence (Q99808 1-456): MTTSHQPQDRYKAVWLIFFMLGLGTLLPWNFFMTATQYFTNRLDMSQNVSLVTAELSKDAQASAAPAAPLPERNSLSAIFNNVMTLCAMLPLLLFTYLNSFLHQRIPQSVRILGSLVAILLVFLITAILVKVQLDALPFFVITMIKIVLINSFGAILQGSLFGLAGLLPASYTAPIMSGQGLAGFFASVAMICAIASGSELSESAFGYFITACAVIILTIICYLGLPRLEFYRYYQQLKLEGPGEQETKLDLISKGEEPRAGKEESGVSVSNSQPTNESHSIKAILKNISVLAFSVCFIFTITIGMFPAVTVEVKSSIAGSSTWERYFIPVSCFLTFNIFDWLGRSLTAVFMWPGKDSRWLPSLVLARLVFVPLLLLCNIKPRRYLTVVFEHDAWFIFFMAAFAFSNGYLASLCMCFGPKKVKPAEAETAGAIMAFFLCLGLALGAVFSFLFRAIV
Put plainly: ENT1 binding assay (competition with Sahenta-DY647 on JAR cells). The conditions noted are these: binned IC50. Also noted: JAR cells expressing ENT1 were bought from ATCC; host or cells: JAR cells. The method, boiled down: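 JAR cells were incubated with test compounds and the fluorescent ligand Sahenta-DY647 in competition. Plates were washed twice by centrifugation (4 min, 400 rcf, 4 °C). Binding potency was derived from the final fluorescence.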
For orientation: IC50 means the point on the concentration scale where inhibition reaches its midpoint. In turn, `COCCN(CCOC)c1nc(N2CCC3(CC2)NC(=O)NC3=O)c2nc(N(CCOC)CCOC)nc(N3CCC(OC)CC3)c2n1` [Compound 117, 8-(2,6-bis(bis(2-methoxyethyl)amino)-8-(4-methoxypiperidin-1-yl)pyrimido[5,4-d]pyrimidin-4-yl)-1,3,8-triazaspiro[4.5]decane-2,4-dione] gave a 50% inhibitory concentration (IC50) of 500 to 1000 nM.
Then `COCCN(CCOC)c1nc(N2CCn3nc(C)nc3C2)c2nc(N(CCOC)CCOC)nc(N3CCN(C)C(=O)C3)c2n1` [Compound 301, 4-(2,6-bis(bis(2-methoxyethyl)amino)-8-(2-methyl-5,6-dihydro-[1,2,4]triazolo[1,5-a]pyrazin-7(8H)-yl)pyrimido[5,4-d]pyrimidin-4-yl)-1-methylpiperazin-2-one], with less than 100 nM.
The compound `COCCN(CCOC)c1nc(N2CCC(OC)CC2)c2nc(N(CCOC)CCOC)nc(N3CCC(NC(C)=O)CC3)c2n1` [Compound 88, N-(1-(2,6-bis(bis(2-methoxyethyl)amino)-8-(4-methoxypiperidin-1-yl)pyrimido[5,4-d]pyrimidin-4-yl)piperidin-4-yl)acetamide] registered an IC50 of 500 to 1000 nM.
`COCCN(CCOC)c1nc(N2CCN(c3ncn(C)n3)CC2)c2nc(N(CCOC)CCOC)nc(NCc3cccc(S(N)(=O)=O)c3)c2n1` [Compound 228, 3-(((2,6-bis(bis(2-methoxyethyl)amino)-8-(4-(1-methyl-1H-1,2,4-triazol-3-yl)piperazin-1-yl)pyrimido[5,4-d]pyrimidin-4-yl)amino)methyl)benzenesulfonamide] gave an IC50 of 100 to 500 nM.
The same measure for `COCCN(CCOC)c1nc(N2CCN(C3CC3)C(=O)C2)c2nc(N(CCO)CCO)nc(N3CCC(OC)CC3)c2n1` [Compound 316, 4-(6-(bis(2-hydroxyethyl)amino)-2-(bis(2-methoxyethyl)amino)-8-(4-methoxypiperidin-1-yl)pyrimido[5,4-d]pyrimidin-4-yl)-1-cyclopropylpiperazin-2-one]: 500 to 1000 nM; for `COCCN(CCOC)c1nc(N2CCC(OC)CC2)c2nc(NCCCn3ccnc3)nc(N3CCC(OC)CC3)c2n1` [Compound 134, N2-(3-(1H-imidazol-1-yl)propyl)-N6,N6-bis(2-methoxyethyl)-4,8-bis(4-methoxypiperidin-1-yl)pyrimido[5,4-d]pyrimidine-2,6-diamine]: 500 to 1000 nM; for `COCCN(CCOC)c1nc(N2CCC(OC)CC2)c2nc(N(CCOC)CCOC)nc(NCc3cscn3)c2n1` [Compound 66, N2,N2,N6,N6-tetrakis(2-methoxyethyl)-8-(4-methoxypiperidin-1-yl)-N4-(thiazol-4-ylmethyl)pyrimido[5,4-d]pyrimidine-2,4,6-triamine]: 500 to 1000 nM.
Compound `COCCN(CCOC)c1nc(N2CCN(C)C(=O)C2)c2nc(N(CCOC)CCOC)nc(NCc3cccc(C#N)c3)c2n1` [Compound 205, 3-(((2,6-bis(bis(2-methoxyethyl)amino)-8-(4-methyl-3-oxopiperazin-1-yl)pyrimido[5,4-d]pyrimidin-4-yl)amino)methyl)benzonitrile] displayed an IC50 of less than 100 nM.
The same measure for `COCCN(CCOC)c1nc(N2CCN(c3ncccn3)CC2)c2nc(N(CCOC)CCOC)nc(N3CCC(OC)CC3)c2n1` [Compound 119, N2,N2,N6,N6-tetrakis(2-methoxyethyl)-4-(4-methoxypiperidin-1-yl)-8-(4-(pyrimidin-2-yl)piperazin-1-yl)pyrimido[5,4-d]pyrimidine-2,6-diamine]: 500 to 1000 nM; for `COCCN(CCOC)c1nc(N2CCN(c3ncn(C)n3)CC2)c2nc(N(CCOC)CCOC)nc(N(C)Cc3cccc(C(N)=O)c3)c2n1` [Compound 249, 3-(((2,6-bis(bis(2-methoxyethyl)amino)-8-(4-(1-methyl-1H-1,2,4-triazol-3-yl)piperazin-1-yl)pyrimido[5,4-d]pyrimidin-4-yl)(methyl)amino)methyl)benzamide]: 100 to 500 nM.
In the case of `COCCN(CCOC)c1nc(N2CC(O)(C(F)(F)F)C2)c2nc(N(CCO)CCO)nc(N3CCC(OC)CC3)c2n1` [Compound 326, 2,2′-((6-(bis(2-methoxyethyl)amino)-8-(3-hydroxy-3-(trifluoromethyl)azetidin-1-yl)-4-(4-methoxypiperidin-1-yl)pyrimido[5,4-d]pyrimidin-2-yl)azanediyl)bis(ethan-1-ol)], the half-inhibitory concentration (IC50) was 500 to 1000 nM.
The same measure for `COCCN(CCOC)c1nc(N2CCC(OC)CC2)c2nc(N(CCOC)CCOC)nc(NCc3cccc(OC(F)F)c3)c2n1` [Compound 144, N4-(3-(difluoromethoxy)benzyl)-N2,N2,N6,N6-tetrakis(2-methoxyethyl)-8-(4-methoxypiperidin-1-yl)pyrimido[5,4-d]pyrimidine-2,4,6-triamine]: 100 to 500 nM.
Compound `COCCN(CCOC)c1nc(N2CCC(OC)CC2)c2nc(N(CCOC)CCOC)nc(OCc3cccc(OC)c3)c2n1` [Compound 153, 4-((3-methoxybenzyl)oxy)-N2,N2,N6,N6-tetrakis(2-methoxyethyl)-8-(4-methoxypiperidin-1-yl)pyrimido[5,4-d]pyrimidine-2,6-diamine] registered an IC50 of less than 100 nM.
The same measure for `COCCN(CCOC)c1nc(N2CC[C@@H](F)C2)c2nc(N(CCOC)CCOC)nc(N3CCC(OC)CC3)c2n1` [Compound 103, (R)-4-(3-fluoropyrrolidin-1-yl)-N2,N2,N6,N6-tetrakis(2-methoxyethyl)-8-(4-methoxypiperidin-1-yl)pyrimido[5,4-d]pyrimidine-2,6-diamine]: 100 to 500 nM; for `COCCN(CCOC)c1nc(N2CCN(C)C(=O)C2)c2nc(N(CCOC)CCOC)nc(N(C)Cc3cccc(F)c3)c2n1` [Compound 233, 4-(2,6-bis(bis(2-methoxyethyl)amino)-8-((3-fluorobenzyl)(methyl)amino)pyrimido[5,4-d]pyrimidin-4-yl)-1-methylpiperazin-2-one]: less than 100 nM.
In turn, `COCCN(CCOC)c1nc(N2CC[C@@H](OC)C2)c2nc(N(CCOC)CCOC)nc(N3CCC(OC)CC3)c2n1` [Compound 107, (R)-N2,N2,N6,N6-tetrakis(2-methoxyethyl)-4-(4-methoxypiperidin-1-yl)-8-(3-methoxypyrrolidin-1-yl)pyrimido[5,4-d]pyrimidine-2,6-diamine] displayed an IC50 of 100 to 500 nM.
`COCCN(CCOC)c1nc(N2CCC(OC)CC2)c2nc(N(CCOC)CCC(N)=O)nc(N3CCC(OC)CC3)c2n1` [Compound 197, 3-((6-(bis(2-methoxyethyl)amino)-4,8-bis(4-methoxypiperidin-1-yl)pyrimido[5,4-d]pyrimidin-2-yl)(2-methoxyethyl)amino)propanamide] yielded a half-inhibitory concentration (IC50) of 500 to 1000 nM.
The compound `COCCN(CCOC)c1nc(N2CC(=O)N(C)C(=O)C2)c2nc(N(CCO)CCO)nc(N3CCC(OC)CC3)c2n1` [Compound 308, 4-(6-(bis(2-hydroxyethyl)amino)-2-(bis(2-methoxyethyl)amino)-8-(4-methoxypiperidin-1-yl)pyrimido[5,4-d]pyrimidin-4-yl)-1-methylpiperazine-2,6-dione] registered an IC50 of less than 100 nM.
The same measure for `COCCN(CCOC)c1nc(N2CCC(OC)CC2)c2nc(N(CCOC)CCOC)nc(N(C)Cc3cccc(OC(F)(F)F)c3)c2n1` [Compound 231, N2,N2,N6,N6-tetrakis(2-methoxyethyl)-8-(4-methoxypiperidin-1-yl)-N4-methyl-N4-(3-(trifluoromethoxy)benzyl)pyrimido[5,4-d]pyrimidine-2,4,6-triamine]: 100 to 500 nM.
The compound `COCCN(CCOC)c1nc(N2CCC(F)(F)CC2)c2nc(N(CCOC)CCOC)nc(N3CCC(F)(F)CC3)c2n1` [Compound 195, 4,8-bis(4,4-difluoropiperidin-1-yl)-N2,N2,N6,N6-tetrakis(2-methoxyethyl)pyrimido[5,4-d]pyrimidine-2,6-diamine] yielded an IC50 of 100 to 500 nM.
Then `COCCN(Cc1ccc(C(=O)O)cc1)c1nc(N2CCN(C)C(=O)C2)c2nc(N(CCOC)CCOC)nc(N3CCC(OC)CC3)c2n1` [Compound 333, 4-(((6-(bis(2-methoxyethyl)amino)-8-(4-methoxypiperidin-1-yl)-4-(4-methyl-3-oxopiperazin-1-yl)pyrimido[5,4-d]pyrimidin-2-yl)(2-methoxyethyl)amino)methyl)benzoic acid], with 500 to 1000 nM; and `COCCN(CCOC)c1nc(N2CCS(=O)(=O)CC2)c2nc(N(CCOC)CCOC)nc(NCc3ccccc3)c2n1` [Compound 7], with less than 100 nM; and `COCCN(CCOC)c1nc(N2CCS(=O)(=O)CC2)c2nc(N(CCOC)CCOC)nc(N3CCS(=O)(=O)CC3)c2n1` [Compound 37, 4,4′-(2,6-bis(bis(2-methoxyethyl)amino)pyrimido[5,4-d]pyrimidine-4,8-diyl)bis(thiomorpholine 1,1-dioxide)], with 500 to 1000 nM.
Consider `COCCN(CCOC)c1nc(N2CCC(OC)CC2)c2nc(N(CCOC)CCOC)nc(N3CCC(F)CC3)c2n1` [Compound 108, 4-(4-fluoropiperidin-1-yl)-N2,N2,N6,N6-tetrakis(2-methoxyethyl)-8-(4-methoxypiperidin-1-yl)pyrimido[5,4-d]pyrimidine-2,6-diamine], for which the IC50 was less than 100 nM.
Then `COCCN(CCOC)c1nc(N2CCC(OC)CC2)c2nc(N(CCOC)CCOC)nc(NCc3ccc(F)c(Cl)c3)c2n1` [Compound 138, N4-(3-chloro-4-fluorobenzyl)-N2,N2,N6,N6-tetrakis(2-methoxyethyl)-8-(4-methoxypiperidin-1-yl)pyrimido[5,4-d]pyrimidine-2,4,6-triamine], with less than 100 nM.
